Experimental data from the NIST ThermoML archive (doi:10.1021/acs.jced.8b00554).

Assay: xn = mol fraction of the nth substance listed
Details: Liquid, Vibrating tube method

CCCCCCCCCC [decane] + CCCO
mass density [kg/m3]
Details	343.15 K	353.15 K
100 kPa, x2 = 0.1391	687.56	676.32
100 kPa, x2 = 0.1907	688.32	676.49
100 kPa, x2 = 0.3001	690.77	678.11
100 kPa, x2 = 0.4326	694.55	680.77
100 kPa, x2 = 0.6863	710.6	696.41
100 kPa, x2 = 0.8711	732.51	719.28
1000 kPa, x2 = 0.1391	–	678.16
1000 kPa, x2 = 0.1907	–	678.39
1000 kPa, x2 = 0.8711	–	721.12
1010 kPa, x2 = 0.1391	689.22	–
1010 kPa, x2 = 0.1907	690.02	–
1010 kPa, x2 = 0.3001	692.37	679.67
1010 kPa, x2 = 0.4326	696.46	–
1010 kPa, x2 = 0.6863	712.46	698.52
1010 kPa, x2 = 0.8711	734.14	–
1020 kPa, x2 = 0.4326	–	682.95
2000 kPa, x2 = 0.6863	713.55	–
2010 kPa, x2 = 0.1391	–	679.31
2010 kPa, x2 = 0.1907	691.1	–
2010 kPa, x2 = 0.3001	693.48	680.84
2010 kPa, x2 = 0.6863	–	699.68
2010 kPa, x2 = 0.8711	–	722.21
2020 kPa, x2 = 0.1391	690.3	–
2020 kPa, x2 = 0.1907	–	679.54
2020 kPa, x2 = 0.4326	697.54	684.1
2020 kPa, x2 = 0.8711	735.16	–
3000 kPa, x2 = 0.1907	–	680.66
3000 kPa, x2 = 0.3001	–	681.96
3010 kPa, x2 = 0.1391	691.36	–
3010 kPa, x2 = 0.1907	692.15	–
3010 kPa, x2 = 0.3001	694.52	–
3010 kPa, x2 = 0.6863	–	700.85
3010 kPa, x2 = 0.8711	736.2	–
3020 kPa, x2 = 0.1391	–	680.43
3020 kPa, x2 = 0.4326	698.61	685.26
3020 kPa, x2 = 0.6863	714.64	–
3020 kPa, x2 = 0.8711	–	723.32
4000 kPa, x2 = 0.1391	692.41	–
4000 kPa, x2 = 0.4326	–	686.44
4000 kPa, x2 = 0.6863	715.75	–
4000 kPa, x2 = 0.8711	737.27	–
4010 kPa, x2 = 0.1391	–	681.55
4010 kPa, x2 = 0.1907	–	681.83
4010 kPa, x2 = 0.3001	–	683.13
4010 kPa, x2 = 0.6863	–	702.05
4020 kPa, x2 = 0.1907	693.23	–
4020 kPa, x2 = 0.3001	695.6	–
4020 kPa, x2 = 0.4326	699.72	–
4020 kPa, x2 = 0.8711	–	724.45
5000 kPa, x2 = 0.4326	700.81	–
5000 kPa, x2 = 0.8711	–	725.63
5010 kPa, x2 = 0.1391	–	682.67
5010 kPa, x2 = 0.1907	–	682.92
5010 kPa, x2 = 0.3001	696.69	684.29
5010 kPa, x2 = 0.4326	–	687.63
5010 kPa, x2 = 0.6863	716.84	–
5020 kPa, x2 = 0.1391	693.45	–
5020 kPa, x2 = 0.1907	694.27	–
5020 kPa, x2 = 0.6863	–	703.25
5020 kPa, x2 = 0.8711	738.33	–
6000 kPa, x2 = 0.6863	–	704.42
6010 kPa, x2 = 0.1391	–	683.79
6010 kPa, x2 = 0.1907	695.3	684.03
6010 kPa, x2 = 0.4326	701.9	688.8
6010 kPa, x2 = 0.6863	717.93	–
6010 kPa, x2 = 0.8711	739.41	–
6020 kPa, x2 = 0.1391	694.49	–
6020 kPa, x2 = 0.3001	697.74	685.42
6020 kPa, x2 = 0.8711	–	726.78
7000 kPa, x2 = 0.4326	702.99	–
7000 kPa, x2 = 0.8711	740.46	–
7010 kPa, x2 = 0.1391	695.53	–
7010 kPa, x2 = 0.1907	696.35	–
7010 kPa, x2 = 0.3001	698.82	686.6
7010 kPa, x2 = 0.4326	–	690
7010 kPa, x2 = 0.6863	719.02	–
7020 kPa, x2 = 0.1391	–	684.92
7020 kPa, x2 = 0.1907	–	685.14
7020 kPa, x2 = 0.6863	–	705.63
7020 kPa, x2 = 0.8711	–	727.93
8000 kPa, x2 = 0.1907	697.42	–
8000 kPa, x2 = 0.3001	–	687.74
8000 kPa, x2 = 0.8711	741.52	–
8010 kPa, x2 = 0.1391	696.59	686.06
8010 kPa, x2 = 0.1907	–	686.32
8010 kPa, x2 = 0.4326	–	691.17
8010 kPa, x2 = 0.6863	720.12	706.82
8010 kPa, x2 = 0.8711	–	729.07
8020 kPa, x2 = 0.3001	699.88	–
8020 kPa, x2 = 0.4326	704.06	–
9000 kPa, x2 = 0.1907	698.46	–
9000 kPa, x2 = 0.6863	–	708.03
9010 kPa, x2 = 0.1391	697.61	–
9010 kPa, x2 = 0.3001	700.95	–
9010 kPa, x2 = 0.4326	–	692.36
9010 kPa, x2 = 0.8711	742.57	730.22
9020 kPa, x2 = 0.1391	–	687.14
9020 kPa, x2 = 0.1907	–	687.44
9020 kPa, x2 = 0.3001	–	688.92
9020 kPa, x2 = 0.4326	705.14	–
9020 kPa, x2 = 0.6863	721.21	–
10000 kPa, x2 = 0.4326	706.23	693.57
10000 kPa, x2 = 0.6863	–	709.2
10010 kPa, x2 = 0.1391	698.62	688.25
10010 kPa, x2 = 0.3001	702.02	–
10010 kPa, x2 = 0.6863	722.27	–
10010 kPa, x2 = 0.8711	743.61	–
10020 kPa, x2 = 0.1907	699.47	–
11010 kPa, x2 = 0.1391	699.66	–
11010 kPa, x2 = 0.1907	700.5	–
11010 kPa, x2 = 0.4326	707.27	–
11010 kPa, x2 = 0.8711	744.65	–
11020 kPa, x2 = 0.3001	703.07	–
11020 kPa, x2 = 0.6863	723.34	–
12000 kPa, x2 = 0.4326	708.34	–
12000 kPa, x2 = 0.8711	745.65	–
12010 kPa, x2 = 0.1907	701.55	–
12010 kPa, x2 = 0.3001	704.1	–
12020 kPa, x2 = 0.1391	700.67	–
12020 kPa, x2 = 0.6863	724.37	–
13000 kPa, x2 = 0.1391	701.67	–
13000 kPa, x2 = 0.6863	725.42	–
13000 kPa, x2 = 0.8711	746.64	–
13010 kPa, x2 = 0.3001	705.15	–
13010 kPa, x2 = 0.4326	709.37	–
13020 kPa, x2 = 0.1907	702.55	–
14000 kPa, x2 = 0.3001	706.16	–
14000 kPa, x2 = 0.4326	710.39	–
14000 kPa, x2 = 0.6863	726.44	–
14000 kPa, x2 = 0.8711	747.65	–
14010 kPa, x2 = 0.1391	702.65	–
14020 kPa, x2 = 0.1907	703.54	–
15000 kPa, x2 = 0.1391	703.58	–
15000 kPa, x2 = 0.1907	704.5	–
15000 kPa, x2 = 0.6863	727.44	–
15010 kPa, x2 = 0.4326	711.38	–
15010 kPa, x2 = 0.8711	748.62	–
15020 kPa, x2 = 0.3001	707.12	–
16000 kPa, x2 = 0.6863	728.43	–
16000 kPa, x2 = 0.8711	749.58	–
16010 kPa, x2 = 0.1391	704.52	–
16010 kPa, x2 = 0.1907	705.46	–
16010 kPa, x2 = 0.3001	708.12	–
16020 kPa, x2 = 0.4326	712.37	–
17000 kPa, x2 = 0.1907	706.43	–
17000 kPa, x2 = 0.3001	709.07	–
17000 kPa, x2 = 0.4326	713.3	–
17010 kPa, x2 = 0.1391	705.45	–
17010 kPa, x2 = 0.6863	729.39	–
17010 kPa, x2 = 0.8711	750.52	–
18000 kPa, x2 = 0.6863	730.34	–
18010 kPa, x2 = 0.1907	707.33	–
18010 kPa, x2 = 0.3001	709.98	–
18010 kPa, x2 = 0.4326	714.25	–
18010 kPa, x2 = 0.8711	751.45	–
18020 kPa, x2 = 0.1391	706.37	–
19010 kPa, x2 = 0.1391	707.22	–
19010 kPa, x2 = 0.3001	710.9	–
19010 kPa, x2 = 0.4326	715.15	–
19010 kPa, x2 = 0.6863	731.24	–
19010 kPa, x2 = 0.8711	752.35	–
19020 kPa, x2 = 0.1907	708.2	–
20000 kPa, x2 = 0.1391	708.05	–
20000 kPa, x2 = 0.1907	709.04	–
20000 kPa, x2 = 0.8711	753.23	–
20010 kPa, x2 = 0.4326	716.08	–
20010 kPa, x2 = 0.6863	732.18	–
20020 kPa, x2 = 0.3001	711.75	–
